Results published in PMC4771075 (Journal of medicinal chemistry, 2015).
Where “and” joins values, the source holds several entries; their conditions need not be identical. Equal values may be shown once. Read-outs that look alike come from different tables or passages of the source. Square brackets hold non-standard residues; d marks the D form. * marks the point of attachment. Dap = NC[C@H](N)C(=O)O; Bn = c1ccc(C*)cc1

Legend:
KOR [1] = biological target: T1, KOR (Rattus norvegicus, UniProt P34975); settings: after a single dose; cited from earlier work
[2] = biological target: kappa opioid receptor (KOR) (Rattus norvegicus, UniProt P34975); test: biochemical; assay type: binding
KOR [3] = biological target: T1, KOR; test: Agonist stimulated [^35S]GTPγS binding assay, agonist efficacy; assay type: biochemical
mu opioid receptor (MOR) = mu opioid receptor (MOR) (Rattus norvegicus, UniProt P33535); test: Radioligand binding assay, MOR
[4] = system: stress-induced reinstatement of cocaine seeking behavior; settings: mice, s.c. administration; cited from earlier work
KOR [5] = biological target: T1, KOR; settings: read-out: KOR Ki found previously; cited from earlier work
KOR [6] = biological target: T1, KOR; test: Schild analysis against Dyn A; assay type: biochemical

Chain of mu opioid receptor (MOR) (P33535 whole entry): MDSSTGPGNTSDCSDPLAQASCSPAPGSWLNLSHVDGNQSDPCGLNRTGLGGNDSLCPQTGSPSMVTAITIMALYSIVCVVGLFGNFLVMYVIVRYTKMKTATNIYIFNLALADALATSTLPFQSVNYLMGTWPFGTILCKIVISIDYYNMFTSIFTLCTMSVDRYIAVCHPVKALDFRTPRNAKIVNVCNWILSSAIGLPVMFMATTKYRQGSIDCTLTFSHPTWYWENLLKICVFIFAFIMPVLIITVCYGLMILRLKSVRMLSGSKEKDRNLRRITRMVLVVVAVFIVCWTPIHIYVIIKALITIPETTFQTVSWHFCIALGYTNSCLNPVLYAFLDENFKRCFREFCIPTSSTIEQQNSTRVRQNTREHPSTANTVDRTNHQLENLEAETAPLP
Chain of kappa opioid receptor (KOR) (P34975 whole entry): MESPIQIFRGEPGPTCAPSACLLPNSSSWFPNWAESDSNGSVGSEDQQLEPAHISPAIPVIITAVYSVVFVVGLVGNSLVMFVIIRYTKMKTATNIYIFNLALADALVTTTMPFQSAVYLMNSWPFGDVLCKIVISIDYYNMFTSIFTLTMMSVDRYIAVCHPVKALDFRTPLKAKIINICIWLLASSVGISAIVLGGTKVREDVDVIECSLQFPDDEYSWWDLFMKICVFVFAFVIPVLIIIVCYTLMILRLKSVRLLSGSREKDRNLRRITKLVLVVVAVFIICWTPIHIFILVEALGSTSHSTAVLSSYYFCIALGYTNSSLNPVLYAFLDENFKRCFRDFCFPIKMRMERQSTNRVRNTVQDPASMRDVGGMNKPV
T1 sequence (P34975 whole entry): as above

Q: With `CC(C)[C@@H](CN1CC[C@@](C)(c2cccc(O)c2)[C@@H](C)C1)NC(=O)[C@H]1Cc2ccc(O)cc2CN1` [JDTic, (3R)-7-hydroxy-N-[(2S)-1-[(3R,4R)-4-(3-hydroxyphenyl)-3,4-dimethylpiperidin-1-yl]-3-methylbutan-2-yl]-1,2,3,4-tetrahydroisoquinoline-3-carboxamide] as the molecule, how does the “duration of KOR antagonist activity” value (KOR [1]) read?
A: The value was “lasting weeks after a single dose”.

Q: Which “Ki ratio, Ki (MOR)/Ki (KOR)” value [2] does the source give for `CC(=O)NC[C@H](NC(=O)[C@H](CCCNC(=N)N)NC(=O)[C@H](CCCNC(=N)N)NC(=O)[C@H](CC(C)C)NC(=O)[C@H](Cc1ccccc1)NC(=O)CNC(=O)CNC(=O)[C@H](Cc1ccc(O)cc1)NCc1ccccc1)C(=O)N[C@@H](CCCNC(=N)N)C(=O)N1CCC[C@H]1C(=O)N[C@@H](CCCCN)C(N)=O` [Peptide 3, NBn-Tyr^1-Gly-Gly-Phe-Leu-Arg-Arg-Dap(Ac)^8-Arg-Pro-Lys-NH2] here?
A: Its value is 5.

Q: And the “Relative KOR affinity” value [2]?
A: The value was 3.3.

Q: And the “fold higher KOR affinity compared to zyklophin” value [2]?
A: Its value is 3 fold.

Q: What about the Ki ([2]; KOR Ki (nM ± SEM)) of the same molecule?
A: Its Ki is 28 nM and 28.6 nM.

Q: What about the EC50 (KOR [3]) of the same molecule?
A: Its EC50 is 39.5 ± 17.4 nM.

Q: What about the “KOR efficacy in the GTPγS assay” value (KOR [3]; screened at 10 µM, compared to the full agonist Dyn A(1-13)NH2) of the same molecule?
A: The value was 26%.

Q: What about the Ki (mu opioid receptor (MOR)) of the same molecule?
A: The Ki was 157 ± 25 nM.

Q: And the “fold higher MOR affinity than zyklophin” value (mu opioid receptor (MOR))?
A: Its value is 28 fold.

Q: For `CC[C@H](C)[C@H](NC(=O)[C@H](CCCN=C(N)N)NC(=O)[C@H](CCCN=C(N)N)NC(=O)[C@H](CC(C)C)NC(=O)[C@H](Cc1ccccc1)NC(=O)CNC(=O)CNC(=O)[C@@H](N)Cc1ccc(O)cc1)C(=O)N[C@@H](CCCN=C(N)N)C(=O)N1CCC[C@H]1C(=O)N[C@@H](CCCCN)C(N)=O` [Dyn A(1-11)NH2, reference compound], which Ki ([2]; KOR Ki (nM ± SEM)) is on record?
A: Its Ki is 2.6 ± 0.3 nM.

Q: Which Ki ([2]; KOR Ki 95% confidence interval, n = 10) does the source give for `N=C(N)NCCC[C@@H]1NC(=O)[C@H](CCCNC(=N)N)NC(=O)[C@H](NC(=O)[C@H](Cc2ccccc2)NC(=O)CNC(=O)CNC(=O)[C@H](Cc2ccc(O)cc2)NCc2ccccc2)CC(=O)NC[C@@H](C(=O)N[C@@H](CCCNC(=N)N)C(=O)N2CCC[C@H]2C(=O)N[C@@H](CCCCN)C(N)=O)NC1=O` [Peptide 1, [N-benzyl-Tyr^1-cyclo(D-Asp^5,Dap^8)]dynorphin A(1-11)NH2] here?
A: The Ki was 30 to 160 nM.

Q: What about the Ki ([2]; KOR Ki (nM ± SEM)) of the same molecule?
A: Its Ki is 95.2 ± 28.8 nM.

Q: And the “Relative KOR affinity” value ([2]; compared to zyklophin (1.0))?
A: The value was 1.0.

Q: And the “stress-induced reinstatement of cocaine seeking behavior” value [4]?
A: Its value is “suppressed”.

Q: And the Ki (mu opioid receptor (MOR))?
A: Its Ki is 4380 ± 560 nM.

Q: Which “fold lower KOR affinity compared to zyklophin” value [2] does the source give for `CC[C@H](C)[C@H](NC(=O)[C@H](CCCNC(=N)N)NC(=O)[C@H](CCCNC(=N)N)NC(=O)[C@@H](CC(N)=O)NC(=O)[C@H](Cc1ccccc1)NC(=O)CNC(=O)CNC(=O)[C@H](Cc1ccc(O)cc1)NCc1ccccc1)C(=O)N[C@@H](CCCNC(=N)N)C(=O)N1CCC[C@H]1C(=O)N[C@@H](CCCCN)C(N)=O` [Peptide 2, NBn-Tyr^1-Gly-Gly-Phe-DAsn^5-Arg-Arg-Ile-Arg-Pro-Lys-NH2] here?
A: The value was 4 fold.

Q: With “[N-benzyl-Tyr^1,D-Asn^5,Dap(Ac)^8]Dyn A(1-11)NH2 (Bn-YGGF[dN]RR[Dap](Ac)RPK-NH2; not fully specified (residue 1))” as the molecule, how does the Ki (KOR [5]) read?
A: The Ki was 66.9 nM.

Q: For `Oc1ccc2c3c1O[C@H]1c4[nH]c5c(c4C[C@@]4(O)[C@@H](C2)N(CC2CC2)CC[C@]314)C[C@@]1(O)[C@H]2Cc3ccc(O)c4c3[C@@]1(CCN2CC1CC1)[C@H]5O4` [norBNI, nor-binaltorphimine, reference compound], which “duration of KOR antagonist activity” value (KOR [1]) is on record?
A: Its value is “lasting weeks after a single dose”.

Q: And the Kb (KOR [6])?
A: The Kb was 0.074 nM.
